# Test results taken from PubChem BioAssay (NCI).
# Values joined by “and” are separate entries in the source; they are usually repeats but may differ in a detail not shown here. Identical values can stand only once.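 Cultured in 96-well plates, cells were exposed to test compound for 48 hours across five concentrations. At the GI50, growth is halved. The concentration for full growth arrest is given as TGI.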
# Legend:
# Test in all cases: growth of human tumour cells (NCI), 48 h
# SF-268 CNS = system: SF-268 CNS
# NCI-H460 lung = system: NCI-H460 lung
# UACC-257 melanoma = system: UACC-257 melanoma
# SNB-19 CNS = system: SNB-19 CNS
# U251 CNS = system: U251 CNS
# M14 melanoma = system: M14 melanoma
# A549 NSCLC = system: A549 NSCLC
# OVCAR-4 ovarian = system: OVCAR-4 ovarian
# MDA-MB-435 = system: MDA-MB-435
Structure (SMILES),TGI (SF-268 CNS) [µM],TGI (NCI-H460 lung) [µM],TGI (UACC-257 melanoma),TGI (SNB-19 CNS) [µM],TGI (U251 CNS) [µM],TGI (M14 melanoma) [µM],TGI (A549 NSCLC),TGI (OVCAR-4 ovarian) [µM],GI50 (MDA-MB-435) [µM],TGI (MDA-MB-435) [µM],GI50 (SF-268 CNS) [µM],GI50 (NCI-H460 lung) [µM],GI50 (UACC-257 melanoma) [µM],GI50 (SNB-19 CNS) [µM],GI50 (U251 CNS) [µM],GI50 (M14 melanoma) [µM],GI50 (A549 NSCLC) [µM],GI50 (OVCAR-4 ovarian) [µM]
CC(=O)O[C@H]1CC[C@@]2(C)C(=CC[C@H]3C4=CC=C(C(C)=O)[C@@]4(C)CCC32)C1 (some centres not stated),> 100,> 100,62.1 µM,> 100,> 100,> 100,> 100 µM,> 100,,,,,,,,,,
O=C(O)/C(=C/c1c(O)ccc2ccccc12)c1csc(-c2nc(/C(=C\c3c(O)ccc4ccccc34)C(=O)O)cs2)n1,26.3,49.1,40.9 µM,43,30.3,25.4,55.5 µM,,,,,,,,,,,
COc1ccc2c(c1OC)C1=C(C2=O)c2cc3c(cc2CCN1)OCO3,> 100,92.7,> 100 µM,,,> 100,> 100 µM,> 100,,,,,,,,,,
COc1cc(/C=C2\CC3C4CC=C5C[C@@H](OC(C)=O)CC[C@]5(C)C4CC[C@]3(C)C2=O)ccc1OCCCn1ccnc1 (some centres not stated),21.5,21.1,22.5 µM,> 50,15.9,17.9,33.9 µM,,10.3,26.6,9.13,9.32,10.4,20.2,8.93,9.28,13,
COc1cc2noc(-c3ccccc3)c2cc1OC,> 100,> 100,> 100 µM,> 100,> 100,> 100,> 100 µM,> 100,,,,,,,,,,
COC1OC(CO)C(O)C(O)C1Br (configuration not stated),> 100,> 100,> 100 µM,> 100,> 100,> 100,> 100 µM,> 100,,,,,,,,,,
O=c1[nH]c(=O)n(C2OC(CO)C(O)C2O)c2c1CCCC2 (configuration not stated),> 100,> 100,> 100 µM,> 100,> 100,> 100,> 100 µM,> 100,,> 100,,,,,,,,
Cn1c(=O)nc2n(-c3cccc(F)c3)c3ccccc3nc-2c1=O,> 100,67.1,28.1 µM,48.6,48.9,67.1,53.5 µM,27.8,,,,,,,,,,
NC(=O)N/N=C/C(/C=N/NC(N)=O)[N+](=O)[O-],> 100,,> 100 µM,> 100,,> 100,> 100 µM,> 100,,,,,,,,,,
C=C=C(CC)C(C(=O)OC)N(CC)CC (configuration not stated),> 100,> 100,> 100 µM,> 100,> 100,> 100,> 100 µM,> 100,,,,,,,,,,
CN1c2ccccc2N(C)C2C1N(C)c1ccccc1N2C (configuration not stated),46.6,> 100,> 100 µM,80.2,> 100,65,> 100 µM,> 100,,,,,,,,,,
Nc1nnc2cc(Cl)ccc2n1,> 100,> 100,> 100 µM,> 100,> 100,> 100,> 100 µM,> 100,> 100,> 100,> 100,> 100,> 100,> 100,> 100,> 100,73.2,> 100
CO/C1=C\C(C)=C\C(C)C(O)C(C)C/C(C)=C/C=C/C(OC)C(C(C)C(O)C(C)C2(O)CC(O)C(C)C(C(C)C)O2)OC1=O (configuration not stated),19.5,,0.0699 µM and 0.0653 µM,24.9,17,0.00127,0.0222 µM and 0.0105 µM,15.6,,0.0042,,,0.0248,,,,,
CCOC(=O)C1(Cc2ccccc2)CCCCCN1 (configuration not stated),> 100,> 100,,,> 100,> 100,> 100 µM,> 100,,,,,,,,,,
COc1c(C(=O)O)oc2c(OC)cccc12,> 100,> 100,> 100 µM,> 100,> 100,> 100,> 100 µM,> 100,,,,,,,,,,
O=C1C[C@@H]2C(COC(=O)c3ccccc3)N(OCc3ccccc3)C[C@@H]2O1 (some centres not stated),> 100,> 100,> 100 µM,> 100,> 100,> 100,> 100 µM,> 100,,,,,,,,,,
Cc1c(C(=O)c2ccccc2C(=O)O)c2ccccc2n1C,,> 100,> 100 µM,,> 100,> 100,> 100 µM,> 100,,,,,,,,,,
